US9440950B2, “Arginine methyltransferase inhibitors and uses thereof” (Epizyme, Inc., priority 2013, dated 2016)

Tested on: Mono-Methyl Arginine in RKO cells
Test: RKO Methylation Assay (In Cell Western)
Assay type: cell-based
Settings: Homo sapiens, 72 hours, percent activation
Excerpt: RKO Methylation Assay RKO adherent cells were purchased from ATCC (American Type Culture Collection), Manassas, Va., USA. DMEM/Glutamax medium, penicillin-streptomycin, heat inactivated fetal bovine serum, 0.05% trypsin and D-PBS were purchased from Life Technologies, Grand Island, N.Y., USA. Odyssey blocking buffer, 800CW goat anti-rabbit IgG (H+L) antibody, and Licor Odyssey infrared scanner were purchased from Licor Biosciences, Lincoln, Nebr., USA. Mono-methyl arginine antibody was purchased from Cell Signaling Technology, Danvers, Mass., USA. Methanol was purchased from VWR, Franklin, Mass., USA. 10% Tween 20 was purchased from KPL, Inc., Gaithersburg, Md., USA. DRAQ5 was purchased from Biostatus Limited, Leicestershire, UK. RKO adherent cells were maintained in growth medium (DMEM/Glutamax medium supplemented with 10% v/v heat inactivated fetal bovine serum and 100 units/mL penicillin-streptomycin) and cultured at 37° C. under 5% CO2. Cell Treatment, In Cell Western (ICW) for Detection of Mono-Methyl Arginine and DNA Content. RKO cells were seeded in assay medium at a concentration of 20,000 cells per mL to a poly-D-lysine coated 384 well culture plate (BD Biosciences 356697) with 50 μL per well. Compound (100 nL) from a 96-well source plate was added directly to 384 well cell plate. Plates were incubated at 37° C., 5% CO2 for 72 hours. After three days of incubation, plates were brought to room temperature outside of the incubator for ten minutes and blotted on paper towels to remove cell media. 50 μL of ice cold 100% methanol was added directly to each well and incubated for 30 min at room temperature. After 30 min, plates were transferred to a Biotek EL406 plate washer and washed 2 times with 100 μL per well of wash buffer (IX PBS). Next 60 μL per well of Odyssey blocking buffer (Odyssey Buffer with 0.1% Tween 20 (v/v)) were added to each plate and incubated 1 hour at room temperature. Blocking buffer was removed and 20 μL per well of primary antibody was added (mono-methyl arginine diluted 1:200 in Odyssey buffer with 0.1% Tween 20 (v/v)) and plates were incubated overnight (16 hours) at 4° C. Plates were washed 5 times with 100 μL per well of wash buffer. Next 20 μL per well of secondary antibody was added (1:200 800CW goat anti-rabbit IgG (H+L) antibody, 1:1000 DRAQ5 (Biostatus limited) in Odyssey buffer with 0.1% Tween 20 (v/v)) and incubated for 1 hour at room temperature. The plates were washed 5 times with 100 μL per well wash buffer then 2 times with 100 μL per well of water. Plates were allowed to dry at room temperature then imaged on the Licor Odyssey machine which measures integrated intensity at 700 nm and 800 nm wavelengths. Both 700 and 800 channels were scanned. Calculations: First, the ratio for each well was determined by: Each plate included fourteen control wells of DMSO only treatment (minimum activation) as well as fourteen control wells for maximum activation treated with 20 μM of a reference compound. The average of the ratio values for each control type was calculated and used to determine the percent activation for each test well in the plate. Reference compound was serially diluted three-fold in DMSO for a total of nine test concentrations, beginning at 20 μM. Percent activation was determined and EC30 curves were generated using triplicate wells per concentration of compound.

**Q.** For `COc1ccc(-c2n[nH]cc2CN(C)CCN)cn1` [Compound 5], which EC30 is on record?
**A.** > 12 µM

**Q.** With `CN(CCN)Cc1c[nH]nc1-c1cncc(F)c1` [Compound 7] as the compound, how does the EC30 read?
**A.** > 12 µM

**Q.** `CN(CCN)Cc1c[nH]nc1-c1ccncc1` [Compound 9] was tested. Which EC30 did it give?
**A.** 3.01 to 12 µM

**Q.** For `COc1cc(-c2n[nH]cc2CN(C)CCN)ccn1` [Compound 11], which EC30 is on record?
**A.** 3.01 to 12 µM

**Q.** How did the EC30 turn out when `COc1cc(-c2n[nH]cc2CN(C)CCN)c(Cl)cn1` [Compound 12] was run?
**A.** > 12 µM

**Q.** Which EC30 does the source give for `CN(CCN)Cc1c[nH]nc1-c1ccc(C(F)(F)F)nc1` [Compound 13, N^1-methyl-N^1-((3-(6-(trifluoromethyl)pyridin-3-yl)-1H-pyrazol-4-yl)methyl)ethane-1,2-diamine] here?
**A.** < 3 µM

**Q.** `COc1ncc(Cl)cc1-c1n[nH]cc1CN(C)CCN` [Compound 14] was tested. Which EC30 did it give?
**A.** > 12 µM

**Q.** Which EC30 does the source give for `COc1ncccc1-c1n[nH]cc1CN(C)CCN` [Compound 15] here?
**A.** > 12 µM

**Q.** `COc1ccncc1-c1n[nH]cc1CN(C)CCN` [Compound 16] was tested. Which EC30 did it give?
**A.** > 12 µM

**Q.** How did the EC30 turn out when `Cc1ccncc1-c1n[nH]cc1CN(C)CCN` [Compound 17] was run?
**A.** > 12 µM

**Q.** `CN(CCN)Cc1c[nH]nc1-c1cncc(C#N)c1` [Compound 18] was tested. Which EC30 did it give?
**A.** > 12 µM

**Q.** With `CN(CCN)Cc1c[nH]nc1-c1cncc(Cl)c1` [Compound 19] as the compound, how does the EC30 read?
**A.** 3.01 to 12 µM

**Q.** How did the EC30 turn out when `CN(CCN)Cc1c[nH]nc1-c1ccc(N2CCOCC2)nc1` [Compound 20] was run?
**A.** 3.01 to 12 µM

**Q.** How did the EC30 turn out when `CC(C)CN(C)c1ccc(-c2n[nH]cc2CN(C)CCN)cn1` [Compound 21] was run?
**A.** 3.01 to 12 µM

**Q.** How did the EC30 turn out when `CC(C)Oc1ccc(-c2n[nH]cc2CN(C)CCN)cn1` [Compound 22] was run?
**A.** < 3 µM

**Q.** Which EC30 does the source give for `CN(CCN)Cc1c[nH]nc1-c1ccc(N(C)Cc2ccccc2)nc1` [Compound 23] here?
**A.** 3.01 to 12 µM

**Q.** `CCN(CC)c1ccc(-c2n[nH]cc2CN(C)CCN)cn1` [Compound 24] was tested. Which EC30 did it give?
**A.** > 12 µM

**Q.** `CN(CCN)Cc1c[nH]nc1-c1ccc(NCc2ccccc2)nc1` [Compound 25] was tested. Which EC30 did it give?
**A.** 3.01 to 12 µM

**Q.** How did the EC30 turn out when `CC(C)CNc1ccc(-c2n[nH]cc2CN(C)CCN)cn1` [Compound 26] was run?
**A.** > 12 µM

**Q.** Which EC30 does the source give for `CNCCN(C)Cc1c[nH]nc1-c1ccc(N(C)CCC(C)C)nc1` [Compound 30] here?
**A.** 3.01 to 12 µM

**Q.** With `CNCCN(C)Cc1c[nH]nc1-c1ccc(N(CC(C)C)CC(C)C)nc1` [Compound 31] as the compound, how does the EC30 read?
**A.** > 12 µM

**Q.** For `CNCCN(C)Cc1c[nH]nc1-c1ccc(N(C)CC(C)C)nc1` [Compound 32, N^1-((3-(6-(isobutyl(methyl)amino)pyridin-3-yl)-1H-pyrazol-4-yl)methyl)-N^1,N^2-dimethylethane-1,2-diamine], which EC30 is on record?
**A.** < 3 µM

**Q.** With `CNCCN(C)Cc1c[nH]nc1-c1ccc(N(C)C(C)C)nc1` [Compound 33, N^1-((3-(6-(isopropyl(methyl)amino)pyridin-3-yl)-1H-pyrazol-4-yl)methyl)-N^1,N^2-dimethylethane-1,2-diamine] as the compound, how does the EC30 read?
**A.** < 3 µM

**Q.** Which EC30 does the source give for `CCN(CCC(C)C)c1ccc(-c2n[nH]cc2CN(C)CCNC)cn1` [Compound 34, N^1-((3-(6-(ethyl(isopentyl)amino)pyridin-3-yl)-1H-pyrazol-4-yl)methyl)-N^1,N^2-dimethylethane-1,2-diamine] here?
**A.** < 3 µM

**Q.** How did the EC30 turn out when `CNCCN(C)Cc1c[nH]nc1-c1ccc(OCC(C)C)nc1` [Compound 35, N^1-((3-(6-iso-butoxypyridin-3-yl)-1H-pyrazol-4-yl)methyl)-N^1,N^2-dimethylethane-1,2-diamine] was run?
**A.** < 3 µM

**Q.** How did the EC30 turn out when `CCN(CC(C)C)c1ccc(-c2n[nH]cc2CN(C)CCNC)cn1` [Compound 36] was run?
**A.** 3.01 to 12 µM
